In US12157755B2, “CD73 inhibitor, preparation method therefor and application thereof” (Abbisko Therapeutics Co., Ltd., priority 2019, dated 2024):

Tests used:
[1] = molecular target: T1, CD73 enzymatic activity expressed on the cell surface of MDA-MB-231 cells (Homo sapiens, UniProt P21589); test: Inhibition of CD73 enzymatic activity on the cell surface (Cell Titer Glo (CTG) experiment), MDA-MB-231 cells; type: cell-based; details: MDA-MB-231 cells endogenously expressing CD73, AMP, 37° C. for 2 hours, CTG readout; read-out: Cellular activity IC50
T1 construct: Human breast cancer cells MDA-MB-231 that endogenously express CD73 were used; host or cells: MDA-MB-231
T1 sequence (P21589 27-549): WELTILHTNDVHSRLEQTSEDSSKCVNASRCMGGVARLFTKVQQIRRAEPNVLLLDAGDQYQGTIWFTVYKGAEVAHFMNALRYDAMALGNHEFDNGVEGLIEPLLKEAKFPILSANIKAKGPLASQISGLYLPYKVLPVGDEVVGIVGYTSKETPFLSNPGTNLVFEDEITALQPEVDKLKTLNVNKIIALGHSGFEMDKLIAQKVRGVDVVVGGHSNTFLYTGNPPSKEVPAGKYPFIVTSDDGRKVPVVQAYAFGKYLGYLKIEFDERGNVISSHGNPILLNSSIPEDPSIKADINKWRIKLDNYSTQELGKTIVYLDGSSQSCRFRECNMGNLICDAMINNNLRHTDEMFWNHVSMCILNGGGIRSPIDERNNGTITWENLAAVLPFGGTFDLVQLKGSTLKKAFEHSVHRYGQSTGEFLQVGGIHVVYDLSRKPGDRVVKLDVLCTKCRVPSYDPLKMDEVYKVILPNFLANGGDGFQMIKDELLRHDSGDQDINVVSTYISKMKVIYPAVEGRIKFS
Description: Human breast cancer cells MDA-MB-231 that endogenously express CD73 were used in the present invention to evaluate the inhibition of the compound against the CD73 enzymatic activity expressed on the cell surface. The cells used were from the Cell Bank of the Chinese Academy of Sciences. The specific experimental procedures were as follows:
1. Before the test, MDA-MB231 cells were seeded to a 96-well plate at 20000 cells/well;
2. In RPMI1640, 10% fetal bovine serum (Gibco, 10099-141), placed in a 5% CO2 incubator at 37° C. overnight (the cells were washed three times by using a serum-free RPMI medium right before the test):
3. 50 μl of serum-free media containing the compounds at different concentrations were added to the cells and incubated for 15 minutes;
4. 25 μL of 1.2 mM AMP was added for incubation at 37° C. for 2 hours, 25 μL of supernatant was then collected from the cells and mix with 25 μL of 100 μM ATP, and then the concentration of AMP in the samples was determined by CTG (Promega, #G7573);
5. Then, a reduction ratio of the substrate AMP level in the cell culture supernatant collected after the reaction was quantitatively determined to evaluate the inhibitory effects of the examples of the present invention and the positive compounds against the CD73 enzymatic activity on the cell surface;
6. Finally, the concentration of the compound leading to half maximal inhibition of enzymatic activity (IC50) was determined using a four-parameter non-linear logistic model curve fit in Graphpad Prism.

[2] = molecular target: T2, CD73 (Homo sapiens, UniProt P21589); test: In vitro enzymatic activity against CD73 (malachite green test using soluble CD73); type: biochemical; details: soluble CD73 36 ng/mL, 50 μM AMP, 30 minutes at 25° C.
T2 construct: purchased R&D systems 5795-EN-010
T2 sequence (P21589 27-547 limits assumed): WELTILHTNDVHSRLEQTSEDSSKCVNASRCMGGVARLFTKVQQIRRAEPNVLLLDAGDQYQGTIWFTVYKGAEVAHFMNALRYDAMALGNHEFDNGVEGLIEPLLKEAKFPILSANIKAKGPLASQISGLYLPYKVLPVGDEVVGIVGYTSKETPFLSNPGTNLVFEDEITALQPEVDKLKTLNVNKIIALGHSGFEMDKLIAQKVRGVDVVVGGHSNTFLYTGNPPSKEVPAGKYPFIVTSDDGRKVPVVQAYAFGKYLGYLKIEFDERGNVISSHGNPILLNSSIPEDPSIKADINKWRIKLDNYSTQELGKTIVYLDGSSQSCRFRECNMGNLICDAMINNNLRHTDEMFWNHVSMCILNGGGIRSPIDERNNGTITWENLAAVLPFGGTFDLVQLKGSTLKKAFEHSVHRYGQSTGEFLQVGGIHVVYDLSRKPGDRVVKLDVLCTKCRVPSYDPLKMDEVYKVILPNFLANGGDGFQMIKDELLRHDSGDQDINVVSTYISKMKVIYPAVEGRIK
Description: The malachite green test using soluble CD73, which is synthesized in vitro was used in the present invention to determine the characteristics of inhibitory activity of the compounds against CD73. The specific experimental procedures were as following:
1. The enzyme reaction in this experiment was carried out in 384-well plates, and CD73 (R&D systems #5795-EN-010) at a concentration of 36 ng/mL, the compounds at different concentrations and 50 μM AMP were incubated for 30 minutes at 25° C. in a 40 uL reaction system (consisting of 25 mM Tris pH 7.5, 5 mM MgCl2, and 0.005% Tween-20);
2. Then, 10 μL of malachite green solution (Sigma) was added to each well to terminate the reaction;
3. The concentration of resulting inorganic phosphate was determined according to the instructions of the reagent manufacturer;
4. The enzymatic activity of CD73 was calculated based on the concentration of the product, and then IC50 values were determined by non-linear regression analysis of the inhibition percentage of the compounds of the present invention at different concentrations.

SMILES | IC50 [1] [nM] | IC50 [2] [nM]
C[C@H](Nc1nc(Cl)nc2c1cnn2[C@@H]1O[C@H](COP(=O)(O)CP(=O)(O)O)[C@@H](O)[C@H]1O)c1ccc(S(F)(F)(F)(F)F)cc1 [Example 2, (((((2R,3S,4R,5R)-5-(6-chloro-4-(((S)-1-(4-(pentafluoro-λ^6-sulfanyl)phenyl)ethyl)amino)-1H-pyrazolo[3,4-d]pyrimidin-1-yl)-3,4-dihydroxytetra-hydrofuran-2-yl)methoxy)(hydroxy)phosphoryl)methyl)phosphonic acid] | 0.73 | 20.6
C[C@H](Nc1nc(Cl)nc2c1cnn2[C@@H]1O[C@H](COP(=O)(O)CP(=O)(O)O)[C@@H](O)[C@H]1O)c1ccc(S(F)(F)(F)(F)F)cc1F [Example 4, (((((2R,3S,4R,5R)-5-(6-chloro-4-(((S)-1-(2-fluoro-4-(pentafluoro-λ^6-sulfanyl)phenyl)ethyl)amino)-1H-pyrazolo[3,4-d]pyrimidin-1-yl)-3,4-dihydroxytetrahydrofuran-2-yl)methoxy)(hydroxy)phosphoryl)methyl)phosphonic acid] | 0.9 | 23.4
C[C@H](Nc1cc(Cl)nc2c1cnn2[C@@H]1O[C@H](COP(=O)(O)CP(=O)(O)O)[C@@H](O)[C@H]1O)c1ccc(S(F)(F)(F)(F)F)cc1F [Example 5, (((((2R,3S,4R,5R)-5-(6-chloro-4-(((S)-1-(2-fluoro-4-(pentafluoro-λ^6-sulfanyl)phenyl)ethyl)amino)-1H-pyrazolo[3,4-b]pyridin-1-yl)-3,4-dihydroxytetrahydrofuran-2-yl)methoxy)(hydroxy)phosphoryl)methyl)phosphonic acid] | 0.49 | 36.5
C[C@@H](Nc1cc(Cl)nc2c1cnn2[C@@H]1O[C@H](COP(=O)(O)CP(=O)(O)O)[C@@H](O)[C@H]1O)c1ccc(S(F)(F)(F)(F)F)cc1 [Example 7, (((((2R,3S,4R,5R)-5-(6-chloro-4-(((R)-1-(4-(pentafluoro-λ^6-sulfanyl)phenyl)ethyl)amino)-1H-pyrazolo[3,4-b]pyridin-1-yl)-3,4-dihydroxytetrahydrofuran-2-yl)methoxy)(hydroxy)phosphoryl)methyl) phosphonic acid] | 1.61 | 15.1
C[C@@H](Nc1cc(Cl)nc2c1cnn2[C@@H]1O[C@H](COP(=O)(O)CP(=O)(O)O)[C@@H](O)[C@H]1O)c1cccc(S(F)(F)(F)(F)F)c1 [Example 9, (((((2R,3S,4R,5R)-5-(6-chloro-4-(((R)-1-(3-(pentafluoro-λ^6-sulfanyl)phenyl)ethyl)amino)-1H-pyrazolo[3,4-b]pyridin-1-yl)-3,4-dihydroxytetrahydrofuran-2-yl)methoxy)(hydroxy)phosphoryl)methyl) phosphonic acid] | 1.45 | 4.8
O=P(O)(O)CP(=O)(O)OC[C@H]1C[C@@H](c2ccc3c(N[C@H]4CCc5ccccc54)nc(Cl)nn23)[C@H](O)[C@@H]1O [Example 26, (((((1R,2R,3S,4S)-4-(2-chloro-4-(((S)-2,3-dihydro-1H-inden-1-yl)amino)pyrrolo[2,1-f][1,2,4]triazin-7-yl)-2,3-dihydroxy-cyclopentyl)methoxy)(hydroxy)phosphoryl)methyl)phosphonic acid] | 3.18 | 

Continued by falling IC50 [1], values first:

IC50 [1] [nM] | IC50 [2] [nM] | SMILES
0.99 | 31.6 | C[C@@H](Nc1cc(Cl)nc2c1cnn2[C@@H]1O[C@H](COP(=O)(O)CP(=O)(O)O)[C@@H](O)[C@H]1O)c1ccc(S(F)(F)(F)(F)F)cc1F [Example 11, (((((2R,3S,4R,5R)-5-(6-chloro-4-(((R)-1-(2-fluoro-4-(pentafluoro-λ^6-sulfanyl)phenyl)ethyl)amino)-1H-pyrazolo[3,4-b]pyridin-1-yl)-3,4-dihydroxytetrahydrofuran-2-yl)methoxy)(hydroxy)phosphoryl)methyl) phosphonic acid]
0.722 | 1.6 | C[C@@H](Nc1nc(Cl)nc2c1cnn2[C@@H]1O[C@H](COP(=O)(O)CP(=O)(O)O)[C@@H](O)[C@H]1O)c1ccc(S(F)(F)(F)(F)F)cc1F [Example 3, (((((2R,3S,4R,5R)-5-(6-chloro-4-(((R)-1-(2-fluoro-4-(pentafluoro-λ^6-sulfanyl)phenyl)ethyl)amino)-1H-pyrazolo[3,4-d]pyrimidin-1-yl)-3,4-dihydroxytetrahydrofuran-2-yl)methoxy)(hydroxy)phosphoryl)methyl)phosphonic acid]
0.59 | 2 | C[C@H](Nc1cc(Cl)nc2c1cnn2[C@@H]1O[C@H](COP(=O)(O)CP(=O)(O)O)[C@@H](O)[C@H]1O)c1cccc(S(F)(F)(F)(F)F)c1 [Example 8, (((((2R,3S,4R,5R)-5-(6-chloro-4-(((S)-1-(3-(pentafluoro-λ^6-sulfanyl)phenyl)ethyl)amino)-1H-pyrazolo[3,4-b]pyridin-1-yl)-3,4-dihydroxytetrahydrofuran-2-yl)methoxy)(hydroxy)phosphoryl)methyl) phosphonic acid]
0.373 | 6.8 | C[C@@H](Nc1nc(Cl)nc2c1cnn2[C@@H]1O[C@H](COP(=O)(O)CP(=O)(O)O)[C@@H](O)[C@H]1O)c1ccc(S(F)(F)(F)(F)F)cc1 [Example 1, (((((2R,3S,4R,5R)-5-(6-chloro-4-(((R)-1-(4-(pentafluoro-λ^6-sulfanyl)phenyl)ethyl)amino)-1H-pyrazolo[3,4-d]pyrimidin-1-yl)-3,4-dihydroxytetrahydrofuran-2-yl)methoxy)(hydroxy)phosphoryl)methyl)phosphonic acid]
0.302 | 2.4 | C[C@H](Nc1cc(Cl)nc2c1cnn2[C@@H]1O[C@H](COP(=O)(O)CP(=O)(O)O)[C@@H](O)[C@H]1O)c1ccc(S(F)(F)(F)(F)F)cc1 [Example 6, (((((2R,3S,4R,5R)-5-(6-chloro-4-(((S)-1-(4-(pentafluoro-λ^6-sulfanyl)phenyl)ethyl)amino)-1H-pyrazolo[3,4-b]pyridin-1-yl)-3,4-dihydroxytetrahydrofuran-2-yl)methoxy)(hydroxy)phosphoryl)methyl) phosphonic acid]
0.21 | 3.1 | O=P(O)(O)CP(=O)(O)OC[C@H]1O[C@@H](n2ncc3c(NCc4ccccc4S(F)(F)(F)(F)F)cc(Cl)nc32)[C@H](O)[C@@H]1O [Example 10, (((((2R,3S,4R,5R)-5-(6-chloro-4-((2-(pentafluoro-λ^6-sulfanyl)phenylmethyl)amino)-1H-pyrazolo[3,4-b]pyridin-1-yl)-3,4-dihydroxytetrahydrofuran-2-yl)methoxy)(hydroxy)phosphoryl)methyl) phosphonic acid]
